Patent publication EP4810052A2, “HCRHR2 SELECTIVE POLYPEPTIDES” (Gubra A/S, priority 2023, dated 2026)
Like-named read-outs stand apart in the source and are kept apart here. Marks after values point to notes of the source that are not given here. Starred links: 1 amine or outer side, 2 acyl side, 3 side chain; linkers in the order of their positions; H or OH if unused. Non-standard residues stand in square brackets, D forms with d. Residues, ends and D or L forms follow the SMILES beside them. Groups on a side chain read outwards from the residue. *: point of attachment. C20 diacid = O=C(O)CCCCCCCCCCCCCCCCCCC(=O)*; γGlu = O=C(O)[C@H](CCC(=O)[*:2])N[*:1]; NMeI = CC[C@H](C)[C@H](NC)C(=O)O; Nle = CCCC[C@H](N)C(=O)O; AEEA = NCCOCCOCC(=O)O; Aib = CC(C)(N)C(=O)O

Legend:
PK in mice = format: in vivo; set-up: T½ / MRT: unit: h; details: for MRT / T½ / clearance / half-life / Cmax / Tmax: Mouse; for bioavailability / clearance / half-life / Cmax / Tmax: male, in vivo; for bioavailability: NMRI, mouse; for clearance / half-life / Cmax / Tmax: NMRI/RjHan; for half-life: read-out: T½ (converted)
Experimental: (§1) Lean male NMRI/RjHan mice were obtained from JanVier (JanVier Labs, France) at 6 weeks of age. The animals were single housed under a 12/12 h dark-light cycle, light off at 3 PM. Room temperature was controlled to 22°C ± 1°C, with 60 % ± 20% humidity. Animals had ad libitum access to regular rodent chow (Altromin 1324, Brogaarden, Denmark) and tap water.
After 2 weeks of acclimatization, the animals were randomized into treatment groups (n=9 per group) based on body weight. Animals were dosed IV with one peptide and SC with another peptide (15 or 50 nmol/kg) Plasma samples were collected for PK analysis at times 0.17, 1, 3, 6, 24, 30, 48, 72 and 96 hours post dosing in a sparse sampling design with 3 mice per group per timepoint. Plasma samples were analyzed using LC-MSMS and PK parameters were estimated by Non-Compartmental Analysis (NCA).

[1] = Chemical stability of purified peptides (RP-UHPLC main peak purity loss); format: physicochemical; details: for Purity loss (RP-UPLC analysis) T28-T0 (%): 28 days
Summary of the method: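 Peptides at about 1.0 mg/ml in 50 mM phosphate buffer pH 7.5, or pH-adjusted for the pH series, were incubated at 40 °C for 14 and 28 days. Main-peak purity was taken as main-peak area over total area by RP-UHPLC (UV 215 nm, C8, 50 °C). Purity loss was calculated versus T0.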

[2] = Dynamic Light Scattering (DLS) of peptide oligomerisation/particle formation; format: physicochemical; details: average of three replica
Experimental: Samples were prepared by dissolving 800 nmol of each peptide in 400 µl 50 mM phosphate pH 8.0 to a concentration of 2000 µM (ca 10 mg/ml). After fully dissolution for 2 hours on a rocking table, samples were adjusted to pH 7.5 and filtrated through a 0.2 µm Whatman Anotop filter. Comparators were commercially available liraglutide drug product (Victoza®, Novo Nordisk) pH 8.2, and an aliquot of this drug product adjusted to pH 6.7. These samples were filtrated through a 0.02 µm Whatman Anotop filter.
Samples were pipetted as triplicate of 30 µl to an Aurora 384 well microtiter plate, which was centrifuged for 2 minutes at 2200 rpm and then sealed with a Thermo sealing tape 235307. DLS measurements were done in a Wyatt DynaPro platereader III with the following parameters:
The microtiter plate was incubated in a Grant-bio Thermo Shaker PHMP-4 at 40°C with 700 rpm continuous shaking before subsequent DLS measurements. Data analysis was done using Wyatt Dynamics software ver. 7.10.1.21.
Samples were prepared and measured as described in procedure. The hydrodynamic radii (Rh) and associated polydispersity (PD) resulting from cumulant analysis (assuming one species) are shown in the Table 8 as averages of three replica. T0 indicates the measurement at time zero after sample preparation; T5 indicates the measurements of five days of incubation as described above.

[3] = Effect on acute food intake in mice; format: in vivo; details: single subcutaneous dose
Experimental: as §1, with “Male NMRI mice” for “Lean male NMRI/RjHan mice”, “at 5” for “at 6”, “were group-housed 4 mice pr. cage” for “were single housed”, “at 1” for “at 3”
Animals were transferred 5-7 days before the start of the study to a real-time food intake monitoring system, HM-2 system (MBRose, Denmark) to allow acclimatization to experimental conditions. As the animals were uniquely identified with microchips, each individual animal was identified by its microchip upon entry and exit from the food channel. Randomization of the mice for each study group (n=7-8) was based on body weight measured the day before the start of the study. A vehicle-treated group was included in each experiment. Six hours before the start of the dark phase, animals were fasted. One hour before the dark phase, animals were dosed once subcutaneously with test peptide. Food intake was reported hourly for a period of 72 hours. The percentage of food intake reduction was normalized to average food intake from the vehicle group. Statistical significance was evaluated using One-way analysis of variance with Dunnett's multiple comparison test. P < 0.05 was considered statistically significant.
Selected compounds were tested according to the general procedure on acute food intake in mice to determine the effect of a single subcutaneous dose on food intake in mice over 3 days.

[4] = T0, time zero after sample preparation
[5] = T5, five days incubation at 40°C with continuous shaking

SMILES	MRT (PK in mice)	T½ (PK in mice)	bioavailability (PK in mice; sc) [%]	clearance (PK in mice; iv, 15 nmol/kg i.v.) [mL/h/kg]	half-life (PK in mice; iv, 15 nmol/kg i.v.) [h]	Cmax (PK in mice; sc, 15 nmol/kg s.c.) [µM]	Tmax (PK in mice; sc, 15 nmol/kg s.c.) [h]	half-life (PK in mice; sc, 15 nmol/kg s.c.) [h]	Purity loss (RP-UPLC analysis) T14-T0 (%) ([1]; pH 7.0, 40°C, 14 days)	Purity loss (RP-UPLC analysis) T28-T0 (%) ([1]; pH 7.0, 40°C)	Purity loss (RP-UPLC analysis) T14-T0 (%) ([1]; pH 7.5, 40°C, 14 days)	Purity loss (RP-UPLC analysis) T28-T0 (%) ([1]; pH 7.5, 40°C)	Purity loss (RP-UPLC analysis) T14-T0 (%) ([1]; pH 8.0, 40°C, 14 days)	Purity loss (RP-UPLC analysis) T28-T0 (%) ([1]; pH 8.0, 40°C)	PD (%) [2, 4] [%]	Rh (nm) [2, 4] [nm]	PD (%) [2, 5] [%]	Rh (nm) [2, 5] [nm]	% FI compared to vehicle, 24 h post-dosing ([3]; 30 nmol/kg)	% FI compared to vehicle, 24 h post-dosing ([3]; 100 nmol/kg)	also measured
CCCC[C@H](NC(=O)[C@@H](NC(=O)[C@H](CCC(=O)O)NC(=O)C(C)(C)NC(=O)[C@H](CC(N)=O)NC(=O)[C@@H](NC(=O)[C@H](CCCCNC(=O)COCCOCCNC(=O)COCCOCCNC(=O)CC[C@H](NC(=O)CC[C@H](NC(=O)CCCCCCCCCCCCCCCCCCC(=O)O)C(=O)O)C(=O)O)NC(=O)[C@H](C)NC(=O)[C@H](CCC(N)=O)NC(=O)[C@H](CCC(=O)O)NC(=O)[C@H](CCCNC(=N)N)NC(=O)[C@H](C)NC(=O)[C@H](C)NC(=O)[C@H](CCCNC(=N)N)NC(=O)[C@H](C)NC(=O)[C@H](CCCNC(=N)N)NC(=O)[C@H](C)NC(=O)[C@H](CCC(N)=O)NC(=O)[C@H](CO)NC(=O)[C@H](CC(C)C)NC(=O)[C@H](CC(C)C)NC(=O)[C@@H](NC(=O)[C@H](CCC(N)=O)NC(=O)[C@H](CC(C)C)NC(=O)[C@H](CC(C)C)NC(=O)CNC(=O)[C@@H](NC(=O)[C@@H]1CCCN1C(=O)[C@@H](NC(=O)[C@H](CC(=O)O)NC(=O)[C@H](CC(C)C)NC(=O)[C@H](CO)NC(=O)[C@H](CC(C)C)NC(=O)[C@@H](NC(=O)[C@@H](NC)[C@@H](C)CC)C(C)C)C(C)C)[C@@H](C)CC)[C@@H](C)CC)[C@@H](C)O)[C@@H](C)CC)C(=O)N[C@@H](C)C(=O)N[C@@H](CCC(=O)O)C(=O)N[C@H](C(N)=O)C(C)C [SEQ ID NO: 215] (H-[NMeI]VLSLDVPIGLLQILLSQARARAAREQAK([AEEA-AEEA-γGlu-γGlu-C20 diacid])TN[Aib]EI[Nle]AEV-NH2)	17.4	12.6	56	4	12.6	0.058	6	14.1	0.2	-0.3	0.1	-0.1	-0.4	-0.7	10.8	5.6	15.1	5.9	38.67*** %	20.26*** %	Chemical stability at pH 7.5 after 14 days at 40°C (% degradation) ([1]; pH 7.5, 14 days, 40°C): -0.92%; Chemical stability at pH 7.5 after 28 days at 40°C (% degradation) ([1]; pH 7.5, 28 days, 40°C): 0.31%; % FI compared to vehicle, 24 h post-dosing ([3]; 300 nmol/kg): 10.31*** %
CC[C@H](C)[C@H](NC)C(=O)N[C@H](C(=O)N[C@@H](CC(C)C)C(=O)N[C@@H](CO)C(=O)N[C@@H](CC(C)C)C(=O)N[C@@H](CC(=O)O)C(=O)N[C@H](C(=O)N1CCC[C@H]1C(=O)N[C@H](C(=O)NCC(=O)N[C@@H](CC(C)C)C(=O)N[C@@H](CC(C)C)C(=O)N[C@@H](CCC(N)=O)C(=O)N[C@H](C(=O)N[C@@H](CC(C)C)C(=O)N[C@@H](CC(C)C)C(=O)N[C@@H](CCC(=O)O)C(=O)N[C@@H](CCC(N)=O)C(=O)N[C@@H](C)C(=O)N[C@@H](CCCNC(=N)N)C(=O)N[C@@H](C)C(=O)N[C@@H](CCCNC(=N)N)C(=O)N[C@@H](C)C(=O)N[C@@H](C)C(=O)N[C@@H](CCCNC(=N)N)C(=O)N[C@@H](CCC(=O)O)C(=O)N[C@@H](CCC(N)=O)C(=O)N[C@@H](C)C(=O)N[C@@H](CCCCNC(=O)COCCOCCNC(=O)COCCOCCNC(=O)CC[C@H](NC(=O)CC[C@H](NC(=O)CCCCCCCCCCCCCCCCCCC(=O)O)C(=O)O)C(=O)O)C(=O)N[C@H](C(=O)N[C@@H](CC(N)=O)C(=O)NC(C)(C)C(=O)N[C@@H](CCC(=O)O)C(=O)N[C@H](C(=O)N[C@@H](CC(C)C)C(=O)N[C@@H](C)C(=O)N[C@@H](CCC(=O)O)C(=O)N[C@H](C(N)=O)C(C)C)[C@@H](C)CC)[C@@H](C)O)[C@@H](C)CC)[C@@H](C)CC)C(C)C)C(C)C [SEQ ID NO: 16] (H-[NMeI]VLSLDVPIGLLQILLEQARARAAREQAK([AEEA-AEEA-γGlu-γGlu-C20 diacid])TN[Aib]EILAEV-NH2)	21.5	15.9	62	3.7	15.9	0.06	6	14.8	-0.6	-1.1	-0.1	-0.3	-0.5	-1.1	10.5	4.7	11.6	4.7	44.62*** %	18.21*** %	Chemical stability at pH 7.5 after 14 days at 40°C (% degradation) ([1]; pH 7.5, 40°C, 14 days, first value of cell): -0.6 / %; % FI compared to vehicle, 24 h post-dosing ([3]; 300 nmol/kg): 12.36*** %
